Bounds are passed on as bounds.

The values that follow come from patent US11613533B2, “Compounds useful for inhibiting RET kinase” (Eli Lilly and Company, priority 2020, dated 2023).

The target of test [1] is T1, G810S mutant RET kinase (N-Terminal GST-tagged recombinant human G810S, aa-658-end) (Homo sapiens, UniProt P07949, G810S).
T1 construct: recombinant human G810S (aa-658-end); GST (N); made in house; host or cells: insect cells
T1 sequence (P07949 658-1114 G810S limits assumed): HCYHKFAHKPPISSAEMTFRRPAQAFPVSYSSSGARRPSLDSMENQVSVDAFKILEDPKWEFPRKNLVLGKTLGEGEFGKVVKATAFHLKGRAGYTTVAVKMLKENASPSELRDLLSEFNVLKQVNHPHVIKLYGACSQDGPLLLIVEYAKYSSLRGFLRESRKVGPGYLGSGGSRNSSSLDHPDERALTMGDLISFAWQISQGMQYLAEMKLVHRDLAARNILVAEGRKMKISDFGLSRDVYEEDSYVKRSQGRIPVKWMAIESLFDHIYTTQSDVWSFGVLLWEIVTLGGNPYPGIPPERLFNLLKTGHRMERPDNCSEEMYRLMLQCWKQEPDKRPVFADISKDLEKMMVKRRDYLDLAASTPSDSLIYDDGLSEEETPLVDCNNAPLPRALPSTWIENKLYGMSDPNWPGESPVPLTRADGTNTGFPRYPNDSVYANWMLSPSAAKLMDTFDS
Briefly: RET enzyme assay (HTRF KinEASE TK), G810S. Type of test: biochemical. Conditions: 1 mM ATP, 60 min incubation at 22° C. As for the experimental part:
Assay A: RET Enzyme Assay
Compounds of formulas I, II, or III are screened for their ability to inhibit wildtype, V804M, and G810S mutant RET kinase using CisBio's HTRF® KinEASE™TK assay technology. N-terminal GST tagged recombinant human RET cytoplasmic domain (aa 658-end) from Eurofins ([…]; Catalog No. 14-570M) or N-terminal GST tagged recombinant human V804M mutant RET cytoplasmic domain (aa 658-end) from Millipore (1.25 nM enzyme; Catalog No. 14-760) or N-Terminal GST-tagged recombinant human G810S (aa-658-end) (1.25 nM Enzyme; produced in insect cells) is incubated with 62.5 nM TK-substrate biotin (CisBio, part of Catalog No. 62TK0PEC) and 1 mM ATP along with test compound (0.4% final DMSO in the assay) in a 1× Cisbio enzymatic buffer consisting of […], 5 mM MgCl2, 0.04% BSA and 0.05% Tween20 in a volume of 10 μL. Compounds are typically prepared in a threefold serial dilution in DMSO and added to the assay to give the appropriate final concentration. After a 40-60 min (40 min for V804M, 60 min for WT and G810S) incubation at 22° C., the reaction is quenched by adding quench solution (10 μL) containing 7.8 nM Streptavidine-XL665 and 0.5×TK-ab-Cryptate in HTRF detection buffer (all from CisBio, part of Cat. No. 62TK0PEC). After a 60-80 min incubation (60 minutes for WT, 80 minutes for V804M and G810S) at 22° C., the extent of reaction is determined using a PHERastar plate reader via HTRF detection at excitation/emission 337/665 nm. Percent of inhibition is calculated with 0% inhibition referring to control conditions containing no compound (0.4% DMSO only) and 100% inhibition represented by conditions containing no enzyme. The % inhibition values are fit to a 4 parameter logistic curve, and the determined IC50 value is defined as the estimated concentration of inhibitor at the inflexion point of the fitted curve.

Test [2] addresses T2, KIF5B-RET mutant form G810S in HEK293 cells (Homo sapiens, UniProt P07949, G810S).
T2 construct: expressed in transfected cells; host or cells: HEK293; the other entry of the earlier key: KIF5B (P33176, Kinesin-1 heavy chain)
T2 sequence (P07949 713-1063 G810S limits assumed): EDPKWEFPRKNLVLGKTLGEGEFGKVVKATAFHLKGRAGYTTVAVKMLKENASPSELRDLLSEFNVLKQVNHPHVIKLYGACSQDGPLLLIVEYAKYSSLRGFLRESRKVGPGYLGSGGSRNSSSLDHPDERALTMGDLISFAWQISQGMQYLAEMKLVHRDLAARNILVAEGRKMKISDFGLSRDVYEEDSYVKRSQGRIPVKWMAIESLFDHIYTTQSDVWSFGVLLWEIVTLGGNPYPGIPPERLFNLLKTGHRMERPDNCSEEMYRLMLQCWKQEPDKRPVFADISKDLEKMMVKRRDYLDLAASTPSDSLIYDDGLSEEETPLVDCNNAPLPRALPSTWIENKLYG
Briefly: RET cell assay (In-Cell Western, phospho-RET Y1062), G810S. Conditions: HEK293, doxycycline-induced KIF5B-RET G810S, 1 hr compound treatment; read-out: EC50, inhibition of intracellular autophosphorylation of RET at tyrosine 1062, G810S cells. The test is classed as cell-based. How it is done: Compounds of formulas (I), (II), and (III) are screened for their ability to inhibit the intracellular autophosphorylation of RET at tyrosine 1062 as detected by In-Cell Western. HEK293 cells containing a doxycycline-inducible plasmid for inducible expression of KIF5B-RET WT and RET mutant forms V804M and G810S are seeded at 25,000 cells/well into black poly-D-lysine pre-coated 384-well plates (Corning, Catalog No. 356697). Expression of KIF5B-RET is induced with doxycycline at 1 μg/mL and cells are incubated at 37° C. overnight. Compounds are prepared in a threefold serial dilution in DMSO before further diluting 1:100 in media prior to the addition to the cells (0.1% final DMSO concentration). Compound treatment is performed for 1 hr at 37° C. followed by fixation of cells with 4% formaldehyde for 20 min at RT and cell permeabilisation with ice-cold MeOH for 10 min at RT. Cells are incubated with Intercept® blocking buffer (Li—COR, Catalogue No. 927-70010) for 1 hr at RT. Incubation with primary antibodies against human phospho-RET (Y1062) (R&D, Catalogue No. AF5009, 1/250 dilution) and human glyceraldehyde-3-phosphate dehydrogenase (clone 6C5, Merck, Catalog No. MAB374, 1/1000 dilution) are performed overnight at 4° C. Incubation with secondary antibodies IRDye® 800CW goat anti-rabbit IgG (Li—COR, Catalogue No. 926-32211, 1/1000 dilution) and IRDye® 680CW goat anti-mouse IgG (Li—COR, Catalogue No. 926-68070, 1/1000 dilution) are performed for 1 hr at RT. All antibody dilutions are done in Intercept® blocking buffer containing 0.05% Tween20. After washing cells with PBS-T (Cell Signaling technology, Catalogue No. 9809), the images are acquired on a Li—COR Odyssey LCx at 700 and 800 nm. Percent of DMSO control is calculated with 100% signal referring to control conditions containing no compound (0.4% DMSO only) and 0% signal represented by conditions containing control compound. The % of DMSO control values are fit to a 4 parameter logistic curve, and the determined EC50 value is defined as the estimated concentration of inhibitor at the inflexion point of the fitted curve.

Turning to `CC(C(=O)Nc1cc(C(C)(C)C(C)(F)F)on1)c1ccc(-c2nn(C(C)C)c(N)c2C(N)=O)cc1` (single isomer, unassigned; isomer 2) [Example 76, 5-Amino-3-[4-(1-[[5-(3,3-difluoro-2-methylbutan-2-yl)-1,2-oxazol-3-yl]carbamoyl]ethyl)phenyl]-1-isopropylpyrazole-4-carboxamide, Isomer 2], the IC50 in test [1] was less than 100 nM. For the same molecule, the EC50 in test [2] was less than 100 nM.
On to `CC(C(=O)Nc1cc(C(C)(C)C)sn1)c1ccc(-c2nn(C(C)C)c(N)c2C(N)=O)cc1` (single isomer, unassigned; isomer 2) [Example 80, 5-Amino-3-(4-[1-[(5-tert-butyl-1,2-thiazol-3-yl)carbamoyl]ethyl]phenyl)-1-isopropylpyrazole-4-carboxamide, isomer 2], for which, in test [1], the IC50 is less than 100 nM. For the same molecule, the EC50 in test [2] is less than 100 nM.
On to `CCC(C)(C)c1cc(NC(=O)C(C)c2ccc(-c3nn(C(C)C)c(N)c3C(N)=O)cn2)on1` (single isomer, unassigned; isomer 2) [Example 84, 5-Amino-1-isopropyl-3-[6-[2-[[3-(1,1-dimethylpropyl)isoxazol-5-yl]amino]-1-methyl-2-oxo-ethyl]-3-pyridyl]pyrazole-4-carboxamide, Isomer 2], for which the IC50 in test [1] is less than 100 nM. For the same molecule, the EC50 in test [2] was less than 100 nM.
With `CC(C(=O)Nc1cc(C(C)(C)C(F)(F)F)no1)c1ccc(-c2nn(C(C)C)c(N)c2C(N)=O)cn1` (single isomer, unassigned; isomer 2) [Example 90, 5-Amino-1-isopropyl-3-[6-[1-methyl-2-oxo-2-[[3-(2,2,2-trifluoro-1,1-dimethyl-ethyl)isoxazol-5-yl]amino]ethyl]-3-pyridyl]pyrazole-4-carboxamide, Isomer 2], the IC50 in test [1] was less than 100 nM. Besides, in test [2], the EC50 is less than 100 nM.
`CC(C(=O)Nc1cc(-c2ccc(Cl)cc2Cl)no1)c1ccc(-c2nn(C(C)C)c(N)c2C(N)=O)cn1` (single isomer, unassigned; isomer 2) [Example 94, 5-Amino-1-isopropyl-3-[6-[2-[[3-(2,4-dichlorophenyl)isoxazol-5-yl]amino]-1-methyl-2-oxo-ethyl]-3-pyridyl]pyrazole-4-carboxamide, Isomer 2]: the IC50 in test [1] is less than 100 nM. Moreover, the EC50 in test [2] is less than 100 nM.

As a reminder, the IC50 is the concentration needed to halve the response being measured. What is called EC50 is the concentration that produces a half-maximal response.
